Test system: 192522-019-R-J2-PDC complex tumor spheroid viability
Assay: Anticancer human tumor 192522-019-R-J2-PDC patient-derived colon adenocarcinoma cell line growth inhibition [POLQ]
Details: for IC50: curve of first compound; for viability, T/C: stronger effect = lower value
Method in brief: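 Three-cell-type spheroids modelling solid tumor plus stroma served as the readout system; POL inhibitors were tested individually and in combination, concentration ranges set by clinical Cmax where known.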

[1] = second compound 0.0316 µM, first compound 0.0316 µM
[2] = second compound 0.0316 µM, first compound 0.1 µM
[3] = second compound 0.0316 µM, first compound 0.316 µM
[4] = second compound 0.0316 µM, first compound 1 µM
[5] = second compound 0.0316 µM, first compound 3.16 µM
[6] = second compound 0.0316 µM, first compound 10 µM
[7] = second compound 0.1 µM, first compound 0.0316 µM
[8] = second compound 0.1 µM, first compound 0.1 µM
[9] = second compound 0.1 µM, first compound 0.316 µM
[10] = second compound 0.1 µM, first compound 1 µM
[11] = second compound 0.1 µM, first compound 3.16 µM
[12] = second compound 0.1 µM, first compound 10 µM
[13] = second compound 0.316 µM, first compound 0.0316 µM
[14] = second compound 0.316 µM, first compound 0.1 µM
[15] = second compound 0.316 µM, first compound 0.316 µM
[16] = second compound 0.316 µM, first compound 1 µM
[17] = second compound 0.316 µM, first compound 3.16 µM
[18] = second compound 0.316 µM, first compound 10 µM
[19] = second compound 1 µM, first compound 0.0316 µM
[20] = second compound 1 µM, first compound 0.1 µM
[21] = second compound 1 µM, first compound 0.316 µM
[22] = second compound 1 µM, first compound 1 µM
[23] = second compound 1 µM, first compound 3.16 µM
[24] = second compound 1 µM, first compound 10 µM
[25] = second compound 3.16 µM, first compound 0.0316 µM
[26] = second compound 3.16 µM, first compound 0.1 µM
[27] = second compound 3.16 µM, first compound 0.316 µM
[28] = second compound 3.16 µM, first compound 1 µM
[29] = second compound 3.16 µM, first compound 3.16 µM
[30] = second compound 3.16 µM, first compound 10 µM
[31] = second compound 10 µM, first compound 0.0316 µM
[32] = second compound 10 µM, first compound 0.1 µM
[33] = second compound 10 µM, first compound 0.316 µM
[34] = second compound 10 µM, first compound 1 µM
[35] = second compound 10 µM, first compound 3.16 µM
[36] = second compound 10 µM, first compound 10 µM
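Also: spheroids exposed to drugs for seven days before reading.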
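For viability, T/C in this document: 100% = DMSO vehicle control viability in luminescence.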

Question: Which results are given for `CCc1cc2c(N3CCc4c(cc(Cn5ccnc5)cc4-c4cn(C)nc4C(F)(F)F)C3=O)cc(C)nc2c(OC)n1` + Nc1ccc(C#CCN(C(=O)Cc2ncc(C(F)(F)F)cc2C(F)(F)F)c2ccc(F)cc2)nn1?
Answer: IC50 (second compound 0.0316 µM): > 10 µM; IC50 (second compound 0.1 µM): > 10 µM; IC50 (second compound 0.316 µM): > 10 µM; IC50 (second compound 1 µM): > 10 µM; IC50 (second compound 3.16 µM): > 10 µM; IC50 (second compound 10 µM): > 10 µM; viability, T/C [1]: 102%; viability, T/C [2]: 99.6%; viability, T/C [3]: 88.1%; viability, T/C [4]: 73.7%; viability, T/C [5]: 63.6%; viability, T/C [6]: 65.4%; viability, T/C [7]: 101%; viability, T/C [8]: 93.6%; viability, T/C [9]: 77.1%; viability, T/C [10]: 76.9%; viability, T/C [11]: 79.5%; viability, T/C [12]: 73.1%; viability, T/C [13]: 105%; viability, T/C [14]: 100%; viability, T/C [15]: 89.4%; viability, T/C [16]: 75.6%; viability, T/C [17]: 72.8%; viability, T/C [18]: 73.4%; viability, T/C [19]: 103%; viability, T/C [20]: 94.2%; viability, T/C [21]: 90.8%; viability, T/C [22]: 76.8%; viability, T/C [23]: 70.8%; viability, T/C [24]: 69.2%; viability, T/C [25]: 101%; viability, T/C [26]: 95.9%; viability, T/C [27]: 89.7%; viability, T/C [28]: 81.6%; viability, T/C [29]: 90.6%; viability, T/C [30]: 81.3%; viability, T/C [31]: 102%; viability, T/C [32]: 98.7%; viability, T/C [33]: 89.1%; viability, T/C [34]: 83.4%; viability, T/C [35]: 92.8%; viability, T/C [36]: 81%

Question: Which IC50 (second compound 0.0316 µM) does the source give for `CCc1cc2c(N3CCc4c(cc(Cn5ccnc5)cc4-c4cn(C)nc4C(F)(F)F)C3=O)ccnc2c(OC)n1` + Nc1ccc(C#CCN(C(=O)Cc2ncc(C(F)(F)F)cc2C(F)(F)F)c2ccc(F)cc2)nn1 here?
Answer: > 10 µM

Question: And the IC50 (second compound 0.1 µM)?
Answer: > 10 µM

Question: And the IC50 (second compound 0.316 µM)?
Answer: > 10 µM

Question: And the IC50 (second compound 1 µM)?
Answer: > 10 µM

Question: What about the IC50 (second compound 3.16 µM) of the same molecule?
Answer: > 10 µM

Question: And the IC50 (second compound 10 µM)?
Answer: > 10 µM

Question: What about the viability, T/C [1] of the same molecule?
Answer: 109%

Question: And the viability, T/C [2]?
Answer: 94.7%

Question: What about the viability, T/C [3] of the same molecule?
Answer: 91.9%

Question: What about the viability, T/C [4] of the same molecule?
Answer: 71.8%

Question: What about the viability, T/C [5] of the same molecule?
Answer: 75.5%

Question: What about the viability, T/C [6] of the same molecule?
Answer: 72.2%

Question: And the viability, T/C [7]?
Answer: 96.1%

Question: What about the viability, T/C [8] of the same molecule?
Answer: 94.9%

Question: And the viability, T/C [9]?
Answer: 94%

Question: And the viability, T/C [10]?
Answer: 80.9%

Question: And the viability, T/C [11]?
Answer: 74.6%

Question: And the viability, T/C [12]?
Answer: 70.6%

Question: What about the viability, T/C [13] of the same molecule?
Answer: 103%

Question: And the viability, T/C [14]?
Answer: 99%

Question: What about the viability, T/C [15] of the same molecule?
Answer: 88%

Question: And the viability, T/C [16]?
Answer: 80.6%

Question: What about the viability, T/C [17] of the same molecule?
Answer: 76.2%

Question: What about the viability, T/C [18] of the same molecule?
Answer: 77.1%

Question: And the viability, T/C [19]?
Answer: 99.7%

Question: What about the viability, T/C [20] of the same molecule?
Answer: 99.4%

Question: And the viability, T/C [21]?
Answer: 94.4%

Question: And the viability, T/C [22]?
Answer: 88.3%

Question: And the viability, T/C [23]?
Answer: 87.6%

Question: What about the viability, T/C [24] of the same molecule?
Answer: 74.5%

Question: What about the viability, T/C [25] of the same molecule?
Answer: 108%

Question: And the viability, T/C [26]?
Answer: 91.6%

Question: What about the viability, T/C [27] of the same molecule?
Answer: 97.5%

Question: What about the viability, T/C [28] of the same molecule?
Answer: 81%

Question: What about the viability, T/C [29] of the same molecule?
Answer: 90.6%

Question: And the viability, T/C [30]?
Answer: 75.8%

Question: And the viability, T/C [31]?
Answer: 106%

Question: What about the viability, T/C [32] of the same molecule?
Answer: 97.9%

Question: What about the viability, T/C [33] of the same molecule?
Answer: 97.8%

Question: What about the viability, T/C [34] of the same molecule?
Answer: 86%

Question: What about the viability, T/C [35] of the same molecule?
Answer: 92.7%

Question: And the viability, T/C [36]?
Answer: 79.8%

Question: With `COc1cc2cc(C(=O)CCC(=O)O)sc2cc1OC` + Nc1ccc(C#CCN(C(=O)Cc2ncc(C(F)(F)F)cc2C(F)(F)F)c2ccc(F)cc2)nn1 as the molecule, how does the IC50 (second compound 0.0316 µM) read?
Answer: > 10 µM

Question: What about the IC50 (second compound 0.1 µM) of the same molecule?
Answer: > 10 µM

Question: What about the IC50 (second compound 0.316 µM) of the same molecule?
Answer: > 10 µM

Question: And the IC50 (second compound 1 µM)?
Answer: > 10 µM

Question: What about the IC50 (second compound 3.16 µM) of the same molecule?
Answer: > 10 µM

Question: And the IC50 (second compound 10 µM)?
Answer: > 10 µM

Question: What about the viability, T/C [1] of the same molecule?
Answer: 102%

Question: What about the viability, T/C [2] of the same molecule?
Answer: 105%

Question: And the viability, T/C [3]?
Answer: 95.4%

Question: What about the viability, T/C [4] of the same molecule?
Answer: 99.6%

Question: What about the viability, T/C [5] of the same molecule?
Answer: 105%

Question: And the viability, T/C [6]?
Answer: 89%

Question: What about the viability, T/C [7] of the same molecule?
Answer: 102%

Question: And the viability, T/C [8]?
Answer: 92.1%

Question: What about the viability, T/C [9] of the same molecule?
Answer: 97.9%

Question: And the viability, T/C [10]?
Answer: 101%

Question: And the viability, T/C [11]?
Answer: 99.4%

Question: And the viability, T/C [12]?
Answer: 87.3%

Question: What about the viability, T/C [13] of the same molecule?
Answer: 102%

Question: And the viability, T/C [14]?
Answer: 102%

Question: And the viability, T/C [15]?
Answer: 105%

Question: And the viability, T/C [16]?
Answer: 100%

Question: What about the viability, T/C [17] of the same molecule?
Answer: 93.8%

Question: And the viability, T/C [18]?
Answer: 91.8%

Question: What about the viability, T/C [19] of the same molecule?
Answer: 102%

Question: And the viability, T/C [20]?
Answer: 98.5%

Question: What about the viability, T/C [21] of the same molecule?
Answer: 100%

Question: What about the viability, T/C [22] of the same molecule?
Answer: 98.8%

Question: And the viability, T/C [23]?
Answer: 104%

Question: And the viability, T/C [24]?
Answer: 103%

Question: And the viability, T/C [25]?
Answer: 103%

Question: What about the viability, T/C [26] of the same molecule?
Answer: 103%

Question: What about the viability, T/C [27] of the same molecule?
Answer: 104%

Question: What about the viability, T/C [28] of the same molecule?
Answer: 93.3%

Question: What about the viability, T/C [29] of the same molecule?
Answer: 103%

Question: And the viability, T/C [30]?
Answer: 103%

Question: And the viability, T/C [31]?
Answer: 109%

Question: What about the viability, T/C [32] of the same molecule?
Answer: 97.4%

Question: What about the viability, T/C [33] of the same molecule?
Answer: 108%

Question: What about the viability, T/C [34] of the same molecule?
Answer: 103%

Question: And the viability, T/C [35]?
Answer: 114%

Question: And the viability, T/C [36]?
Answer: 102%

— PubChem BioAssay AID1963850 (Molecular Pharmacology Branch, DTP, NCI, 2024)
